Values of other authors as cited in patent publication US5707620A (priority 1995, dated 1998).

Test system: hemagglutinins
Conditions: cited from earlier work

Row | SMILES | inhibition of activity of hemagglutinins
1 | N=C(N)NCCC[C@H](N)C(=O)O [arginine] | inhibited by arginine
2 | NCCCC[C@H](N)C(=O)O [lysine] | to a lesser extent, lysine
